From patent publication US11091514B2, “Peptide macrocycles and use thereof in the treatment of bacterial infections” (Hoffmann-La Roche Inc., priority 2017, dated 2021)

Tested on: A. baumannii strain ATCC19606
Assay type: cell-based, Acinetobacter baumannii
Conditions: ATCC19606, 20 h
Procedure: The in vitro antimicrobial activity of the compounds was determined through microbroth minimum inhibitory concentration (MIC) methodology performed according to the Clinical and Laboratory Standard Institute guidelines (CLSI-M07-A9 January 2012. Methods for Dilution Antimicrobial Susceptibility Tests for Bacteria That Grow Aerobically; Approved Standard Ninth Edition, Clinical and Laboratory Standards Institute, Wayne/PA, US and the CLSI-M100-S24 January 2014. Performance Standards for Antimicrobial Susceptibility Testing; Approved Standard—Fourth Informational Supplement, Clinical and Laboratory Standards Institute, Wayne/PA, US).
The compound stock solution was freshly prepared at 10× the required top concentration for the MIC determination, i.e. at 1280 mg/L, by reconstitution of the dry compound in 50:50 water:DMSO.
Polystyrene non-treated 96 wells microtiter plates were used for preparing panel containing compound serial twofold diluted at two times the final testing concentration (e.g. range from 64 to 0.06 μg/ml) in cation adjusted Mueller Hinton broth medium (CAMHB).
Inoculum was prepared by the “direct colony suspension method”. Colonies of A. baumannii ATCC19606 or clinical isolates were suspended in saline solution and adjusted to 0.5 McFarland, diluted 100 times in CAMHB broth and 50 μl added to each well (final concentration of cells˜5×10^(5) CFU/ml and Final volume/well of 100 μl). Microtiter plates were sealed and incubated at 35±2° C.
MICs values were read after 20 hours of incubation and recorded as the lowest concentration of the antimicrobial that inhibits more or equal to 80% of growth of the organism as detected by the unaided eye and using a microtiter plate optical density reader (OD 600 nm).
Table 1 provides the minimum inhibitory concentration (MIC) in microgram per milliliter of the compounds of present invention obtained against the A. baumannii strain ATCC19606.

In order of falling “ATCC19606 MIC (minimum inhibitory concentration)” value:
1. CN1C(=O)[C@H](CCCCN)NC(=O)[C@H](CCCN)NCc2cccc(c2)-c2ccccc2CNC(=O)[C@@H]1Cc1c[nH]c2ccccc12 [Example 1, (11S,14S,17S)-14-(4-Amino-butyl)-17-(3-amino-propyl)-11-(1H-indol-3-ylmethyl)-12-methyl-9,12,15,18-tetraaza-tricyclo[18.3.1.0*2,7]tetracosa-1(24),2(7),3,5,20,22-hexaene-10,13,16-trione]  32 µg/mL
2. Cc1cccc2c1-c1cccc(c1)CN[C@@H](CCCN)C(=O)N[C@@H](CCCCN)C(=O)N(C)[C@@H](Cc1c[nH]c3ccccc13)C(=O)NC2 [Example 4, (11S,14S,17S)-14-(4-Amino-butyl)-17-(3-amino-propyl)-11-(1H-indol-3-ylmethyl)-3,12-dimethyl-9,12,15,18-tetraaza-tricyclo[18.3.1.0*2,7]tetracosa-1(23),2(7),3,5,20(24),21-hexaene-10,13,16-trione]  32 µg/mL
3. CN1C(=O)[C@H](CCCCN)NC(=O)[C@H](CCCN)NCc2cccc(c2)-c2cccc(Cl)c2CNC(=O)[C@@H]1Cc1c[nH]c2ccccc12 [Example 6, (11S,14S,17S)-14-(4-Amino-butyl)-17-(3-amino-propyl)-6-chloro-11-(1H-indol-3-ylmethyl)-12-methyl-9,12,15,18-tetraaza-tricyclo[18.3.1.0*2,7]tetracosa-1(23),2(7),3,5,20(24),21-hexaene-10,13,16-trione]  32 µg/mL
4. CN1C(=O)[C@H](CCCCN)NC(=O)[C@H](CCCN)NCc2ccnc(c2)-c2ccc(Cl)cc2CNC(=O)[C@@H]1Cc1c[nH]c2ccccc12 [Example 11, (11S,14S,17S)-14-(4-Amino-butyl)-17-(3-amino-propyl)-5-chloro-11-(1H-indol-3-ylmethyl)-12-methyl-9,12,15,18,23-pentaaza-tricyclo[18.3.1.0*2,7]tetracosa-1(23),2(7),3,5,20(24),21-hexaene-10,13,16-trione]  32 µg/mL
5. CN1C(=O)[C@H](CCCCN)NC(=O)[C@H](CCCN)NCc2cccc(c2F)-c2ccccc2CNC(=O)[C@@H]1Cc1c[nH]c2ccccc12 [Example 10, (11S,14S,17S)-14-(4-Amino-butyl)-17-(3-amino-propyl)-24-fluoro-11-(1H-indol-3-ylmethyl)-12-methyl-9,12,15,18-tetraaza-tricyclo[18.3.1.0*2,7]tetracosa-1(23),2(7),3,5,20(24),21-hexaene-10,13,16-trione]  16 µg/mL
6. CN1C(=O)[C@H](CCCCN)NC(=O)[C@H](CCCN)NCc2cccc(c2)-c2ccc(Cl)cc2CNC(=O)[C@@H]1Cc1c[nH]c2ccccc12 [Example 5, (11S,14S,17S)-14-(4-Amino-butyl)-17-(3-amino-propyl)-5-chloro-11-(1H-indol-3-ylmethyl)-12-methyl-9,12,15,18-tetraaza-tricyclo[18.3.1.0*2,7]tetracosa-1(23),2(7),3,5,20(24),21-hexaene-10,13,16-trione]  4 µg/mL
7. CN1C(=O)[C@H](CCCCN)NC(=O)[C@H](CCCN)NCc2cccc(c2)-c2cc(C(F)(F)F)ccc2CNC(=O)[C@@H]1Cc1c[nH]c2ccccc12 [Example 8, (11S,14S,17S)-14-(4-Amino-butyl)-17-(3-amino-propyl)-11-(1H-indol-3-ylmethyl)-12-methyl-4-trifluoromethyl-9,12,15,18-tetraaza-tricyclo[18.3.1.0*2,7]tetracosa-1(24),2(7),3,5,20,22-hexaene-10,13,16-trione]  4 µg/mL
8. COc1ccc2c(c1)CNC(=O)[C@H](Cc1c[nH]c3ccccc13)N(C)C(=O)[C@H](CCCCN)NC(=O)[C@H](CCCN)NCc1cccc-2c1 [Example 9, (11S,14S,17S)-14-(4-Amino-butyl)-17-(3-amino-propyl)-11-(1H-indol-3-ylmethyl)-5-methoxy-12-methyl-9,12,15,18-tetraaza-tricyclo[18.3.1.0*2,7]tetracosa-1(23),2(7),3,5,20(24),21-hexaene-10,13,16-trione]  4 µg/mL
9. CN1C(=O)[C@H](CCCCN)NC(=O)[C@H](CCCN)NCc2cccc(c2)-c2c(cccc2C(F)(F)F)CNC(=O)[C@@H]1Cc1c[nH]c2ccccc12 [Example 2, (11S,14S,17S)-14-(4-Amino-butyl)-17-(3-amino-propyl)-11-(1H-indol-3-ylmethyl)-12-methyl-3-trifluoromethyl-9,12,15,18-tetraaza-tricyclo[18.3.1.0*2,7]tetracosa-1(24),2(7),3,5,20,22-hexaene-10,13,16-trione]  2 µg/mL
10. Cc1ccc2c(c1)CNC(=O)[C@H](Cc1c[nH]c3ccccc13)N(C)C(=O)[C@H](CCCCN)NC(=O)[C@H](CCCN)NCc1cccc-2c1 [Example 7, (11S,14S,17S)-14-(4-Amino-butyl)-17-(3-amino-propyl)-11-(1H-indol-3-ylmethyl)-5,12-dimethyl-9,12,15,18-tetraaza-tricyclo[18.3.1.0*2,7]tetracosa-1(23),2(7),3,5,20(24),21-hexaene-10,13,16-trione]  1 µg/mL
11. CN1C(=O)[C@H](CCCCN)NC(=O)[C@H](CCCN)NCc2cccc(c2)-c2ccc(C(F)(F)F)cc2CNC(=O)[C@@H]1Cc1c[nH]c2ccccc12 [Example 3, (11S,14S,17S)-14-(4-Amino-butyl)-17-(3-amino-propyl)-11-(1H-indol-3-ylmethyl)-12-methyl-5-trifluoromethyl-9,12,15,18-tetraaza-tricyclo[18.3.1.0*2,7]tetracosa-1(24),2(7),3,5,20,22-hexaene-10,13,16-trione]  0.5 µg/mL
